These results are taken from the supplement of paper PMC11208160.

The data set can be described thus: recombinant UMI read abundance after kanamycin selection (control-corrected) (log10(CPM+1)); higher = more efficient recombination; extreme values may be limits of the assay; sequences stand for … in AGTGCAGAGAAAATCGGCCAGTTTTCTCTGCCTGCAGTCCGCATGCCGTGGGACCCCTTGGGTTCTAACCTGTTGCCTAGATTTATGCAGCGGACTGCCTTTCTCCCAAAGTGATAAACCGG…AGGTTGGTTTCACT; site = the 11-nt donor. Here is the method:
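Pooled E. coli donor-specificity screen for the IS621 bridge recombinase. Each library member carries a reprogrammed 11-nt donor and a full-length LE bridge RNA expressed in cis from the natural promoter, with a paired donor-binding loop (8-nt LDG + 4-nt RDG) and a target-binding loop fixed to T5. It is co-electroporated with a T5 target plasmid; recombinase is induced with 0.07 mM IPTG and recombinants are selected on kanamycin. UMIs are counted as CPM, averaged over two biological replicates and corrected by the unselected control. Molecule = full bridge RNA written as DNA, built from the T5 scaffold: LDG = donor specificity nt 1-8, RDG = reverse complement of nt 8-11.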
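Further: IS621 bridge recombinase in Escherichia coli cells against a fixed T5 target plasmid.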

In the case of “AAAACACCATGGACCGGTTTTCCCGGTAATCCGTATTTGCG (site AAAACACCTCG)”, the “recombinant UMI read abundance (log10)” value was 0.012. Under “AAAACCCCATGGACCGGTTTTCCCGGTAATCCGTATTTGGA (site AAAACCCCTTC)” stands 0.00874; under “AAAACTACATGGACCGGTTTTCCCGGTAATCCGTATTTGCG (site AAAACTACTCG)”, 1.1.

For “AAAAGAACATGGACCGGTTTTCCCGGTAATCCGTATTTGAA (site AAAAGAACTTT)”, the “recombinant UMI read abundance (log10)” value was determined as 2.03. Under “AAAAGACCATGGACCGGTTTTCCCGGTAATCCGTATTTGTA (site AAAAGACCTTA)” stands 0; under “AAAAGCACATGGACCGGTTTTCCCGGTAATCCGTATTTGCA (site AAAAGCACTTG)”, 2.36.

Take “AAACATACATGGACCGGTTTTCCCGGTAATCCGTATTTGTG (site AAACATACTCA)”: the “recombinant UMI read abundance (log10)” value stood at 1.38. For “AAACCAGCATGGACCGGTTTTCCCGGTAATCCGTATTTGGC (site AAACCAGCTGC)”, the “recombinant UMI read abundance (log10)” value worked out at 0.

With “AAAGCTCCATGGACCGGTTTTCCCGGTAATCCGTATTTGCG (site AAAGCTCCTCG)”, the “recombinant UMI read abundance (log10)” value was 0.472.

As to “AAAGCTTCATGGACCGGTTTTCCCGGTAATCCGTATTTGGG (site AAAGCTTCTCC)”, the “recombinant UMI read abundance (log10)” value is 0.447.

In the case of “AAAGGGGCATGGACCGGTTTTCCCGGTAATCCGTATTTGGG (site AAAGGGGCTCC)”, the “recombinant UMI read abundance (log10)” value was 0. Under “AAAGTAGCATGGACCGGTTTTCCCGGTAATCCGTATTTGGC (site AAAGTAGCTGC)” stands 2.01; under “AAAGTCACATGGACCGGTTTTCCCGGTAATCCGTATTTGAC (site AAAGTCACTGT)”, 2.44; under “AAATATTCATGGACCGGTTTTCCCGGTAATCCGTATTTGGG (site AAATATTCTCC)”, 0.372. Under “AAATCAGCATGGACCGGTTTTCCCGGTAATCCGTATTTGTT (site AAATCAGCTAA)” stands 0.425; under “AAATCGTCATGGACCGGTTTTCCCGGTAATCCGTATTTGCT (site AAATCGTCTAG)”, 2.36; under “AACAGACCATGGACCGGTTTTCCCGGTAATCCGTATTTGCG (site AACAGACCTCG)”, 0. Next, “AACAGACCATGGACCGGTTTTCCCGGTAATCCGTATTTGTA (site AACAGACCTTA)”: 1.25; “AACAGCCCATGGACCGGTTTTCCCGGTAATCCGTATTTGCA (site AACAGCCCTTG)”: 0.756.

As for “AACAGCGCATGGACCGGTTTTCCCGGTAATCCGTATTTGAC (site AACAGCGCTGT)”, the “recombinant UMI read abundance (log10)” value turned out to be 2.

In the case of “AACATGCCATGGACCGGTTTTCCCGGTAATCCGTATTTGCT (site AACATGCCTAG)”, the “recombinant UMI read abundance (log10)” value was 1.43. Under “AACCAAACATGGACCGGTTTTCCCGGTAATCCGTATTTGAA (site AACCAAACTTT)” stands 1.31. Under “AACCCAACATGGACCGGTTTTCCCGGTAATCCGTATTTGAC (site AACCCAACTGT)” stands 2.68. Next, “AACCGACCATGGACCGGTTTTCCCGGTAATCCGTATTTGAT (site AACCGACCTAT)”: 0.0205. As for “AACCGACCATGGACCGGTTTTCCCGGTAATCCGTATTTGAT (site AACCGCCCTAT)”, the “recombinant UMI read abundance (log10)” value was determined as 0. Under “AACCGACCATGGACCGGTTTTCCCGGTAATCCGTATTTGAT (site AACCGGCCTAT)” stands 0.0183; under “AACCGACCATGGACCGGTTTTCCCGGTAATCCGTATTTGAT (site AACCGTCCTAT)”, 0.0119; under “AACCGTGCATGGACCGGTTTTCCCGGTAATCCGTATTTGTG (site AACCGTGCTCA)”, 0.0421. Under “AACCTTCCATGGACCGGTTTTCCCGGTAATCCGTATTTGAT (site AACCATCCTAT)” stands 0.00673. Under “AACCTTCCATGGACCGGTTTTCCCGGTAATCCGTATTTGAT (site AACCCTCCTAT)” stands 0.0165; under “AACCTTCCATGGACCGGTTTTCCCGGTAATCCGTATTTGAT (site AACCGTCCTAT)”, 0.0124. In the case of “AACCTTCCATGGACCGGTTTTCCCGGTAATCCGTATTTGAT (site AACCTTCCTAT)”, the “recombinant UMI read abundance (log10)” value is 0. “AACGATGCATGGACCGGTTTTCCCGGTAATCCGTATTTGAC (site AACGATGCTGT)”: the “recombinant UMI read abundance (log10)” value was determined as 2.22.

Turning to “AACGCCGCATGGACCGGTTTTCCCGGTAATCCGTATTTGTC (site AACGCCGCTGA)”, the “recombinant UMI read abundance (log10)” value amounted to 2.24. Next, “AACGGTCCATGGACCGGTTTTCCCGGTAATCCGTATTTGAT (site AACAGTCCTAT)”: 0.00739. Consider “AACGGTCCATGGACCGGTTTTCCCGGTAATCCGTATTTGAT (site AACCGTCCTAT)”, for which the “recombinant UMI read abundance (log10)” value came out at 0.

In the case of “AACGGTCCATGGACCGGTTTTCCCGGTAATCCGTATTTGAT (site AACGGTCCTAT)”, the “recombinant UMI read abundance (log10)” value turned out to be 0. Regarding “AACGGTCCATGGACCGGTTTTCCCGGTAATCCGTATTTGAT (site AACTGTCCTAT)”, the “recombinant UMI read abundance (log10)” value was found to be 0.145. Under “AACGTAACATGGACCGGTTTTCCCGGTAATCCGTATTTGCT (site AAAGTAACTAG)” stands 0.893; under “AACGTAACATGGACCGGTTTTCCCGGTAATCCGTATTTGCT (site AACGTAACTAG)”, 2.51. For the sequence “AACGTAACATGGACCGGTTTTCCCGGTAATCCGTATTTGCT (site AAGGTAACTAG)”, the “recombinant UMI read abundance (log10)” value turned out to be 0.524. Under “AACGTAACATGGACCGGTTTTCCCGGTAATCCGTATTTGCT (site AATGTAACTAG)” stands 1.49; under “AACGTATCATGGACCGGTTTTCCCGGTAATCCGTATTTGCA (site AACGTATCTTG)”, 2.73. Under “AACGTATCATGGACCGGTTTTCCCGGTAATCCGTATTTGCA (site ACAGTATCTTG)” stands 1.07; under “AACGTCTCATGGACCGGTTTTCCCGGTAATCCGTATTTGTC (site AACGTCTCTGA)”, 3.05. On to “AACGTGTCATGGACCGGTTTTCCCGGTAATCCGTATTTGTT (site AACGTGTCTAA)”, for which the “recombinant UMI read abundance (log10)” value amounted to 2.59.

As for “AACTAGACATGGACCGGTTTTCCCGGTAATCCGTATTTGAG (site AACTAGACTCT)”, the “recombinant UMI read abundance (log10)” value worked out at 1.48. Under “AACTATACATGGACCGGTTTTCCCGGTAATCCGTATTTGGT (site AACTATACTAC)” stands 1.26. On to “AACTCATCATGGACCGGTTTTCCCGGTAATCCGTATTTGAA (site AACTCATCTTT)”, for which the “recombinant UMI read abundance (log10)” value stood at 1.19. As to “AACTCGCCATGGACCGGTTTTCCCGGTAATCCGTATTTGCT (site AACTCGCCTAG)”, the “recombinant UMI read abundance (log10)” value was 1.56. Under “AACTCGCCATGGACCGGTTTTCCCGGTAATCCGTATTTGTT (site AACTCGCCTAA)” stands 0.0268; under “AACTGGTCATGGACCGGTTTTCCCGGTAATCCGTATTTGAC (site AACTGGTCTGT)”, 1.18.
